The target in test [1] is T1, B-Raf (Homo sapiens, UniProt P15056, V600E). Briefly: cell-based. The class given is cell-based. Conditions: for EC50: B-Raf ITDRFCETSA pEC50, 2 h incubation with live A375 cells, mean ± standard deviation of ⩾3 technical repeats.
The target of test [2] is T1, B-Raf. The experiment in a line: B-Raf CETSA HT single-concentration screen of kinase inhibitor library. The test is classed as cell-based. As to conditions: 30 µM, 2 h incubation with live A375 cells, 49 °C heatshock, two technical repeats.
In a further test the target is purified B-Raf protein (Homo sapiens, UniProt P15056). Briefly: Differential scanning fluorimetry with purified B-Raf protein. The test is classed as binding. Conditions: same concentration (30 µM); data not shown. In general terms: In DSF a fluorescence change marks the thermal transition of the protein.
The mark [3] stands for this setting: A375 cells, at least three technical repeats.

Read-outs that look alike come from different tables or passages of the source. Bounds are passed on as bounds.

What is called EC50 is the concentration at which the effect is half-maximal.

T1 sequence (P15056 whole entry V600E): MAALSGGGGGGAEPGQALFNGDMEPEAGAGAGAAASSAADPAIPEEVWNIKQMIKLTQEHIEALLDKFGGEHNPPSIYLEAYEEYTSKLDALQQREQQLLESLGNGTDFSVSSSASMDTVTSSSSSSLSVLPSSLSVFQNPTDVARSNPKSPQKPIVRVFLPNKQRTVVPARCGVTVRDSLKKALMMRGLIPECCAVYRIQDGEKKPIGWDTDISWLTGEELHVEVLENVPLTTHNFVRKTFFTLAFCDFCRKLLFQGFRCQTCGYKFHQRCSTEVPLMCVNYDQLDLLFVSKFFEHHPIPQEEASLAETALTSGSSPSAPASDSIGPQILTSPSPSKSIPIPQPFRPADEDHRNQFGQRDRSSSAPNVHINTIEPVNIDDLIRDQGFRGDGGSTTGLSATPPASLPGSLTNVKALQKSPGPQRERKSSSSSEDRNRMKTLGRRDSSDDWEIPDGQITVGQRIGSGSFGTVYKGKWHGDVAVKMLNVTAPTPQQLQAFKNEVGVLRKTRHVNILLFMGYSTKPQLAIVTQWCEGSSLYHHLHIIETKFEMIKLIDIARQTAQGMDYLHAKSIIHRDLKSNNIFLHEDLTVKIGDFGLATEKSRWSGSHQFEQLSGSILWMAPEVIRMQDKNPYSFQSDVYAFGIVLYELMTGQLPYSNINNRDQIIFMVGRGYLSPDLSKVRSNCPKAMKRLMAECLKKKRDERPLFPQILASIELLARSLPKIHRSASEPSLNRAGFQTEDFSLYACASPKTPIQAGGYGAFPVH
Chain of purified B-Raf protein (P15056 whole entry): as the sequence (P15056 whole entry V600E) above, with E600V counted along it

Take `Cc1ccc(NC(=O)c2cccc(C(C)(C)C#N)c2)cc1Nc1ccc2ncn(C)c(=O)c2c1` [AZ628]: on B-Raf [1] (setting [3]), the “B-Raf ITDRFCETSA activity (in words)” value is “clear evidence of target engagement”.
`COc1cc2ncnc(Oc3cccc(NC(=O)Nc4cc(C(C)(C)C(F)(F)F)on4)c3)c2cc1OC` [CEP-32496]: the “Thermal stabilization of B-Raf in CETSA HT screen (hit call)” value (“Thermal stabilization of B-Raf” below) on B-Raf [2] is listed as “hits”.
Turning to `CNS(=O)(=O)Nc1nccc(Cc2c(C)c3ccc(Oc4ncccn4)cc3oc2=O)c1F` [CH-5126766], the “B-Raf ITDRFCETSA activity (in words)” value on B-Raf [1] (setting [3]) is reported as “weak activity”. Further, it took 10 µM to reach a half-maximal effect at B-Raf [1] (EC50).
As for `C[C@@H](Oc1cc(-c2cnn(C3CCNCC3)c2)cnc1N)c1c(Cl)ccc(F)c1Cl` [Crizotinib, crizotinib], at B-Raf [1] (setting [3]), the “B-Raf ITDRFCETSA activity (in words)” value is “inactive”.
As for `CCn1c(=O)c(-c2cc(NC(=O)Nc3ccccc3)c(F)cc2Br)cc2cnc(NC)cc21` [DCC-2618], the “Thermal stabilization of purified B-Raf protein by differential scanning fluorimetry” value at purified B-Raf protein was “showed thermal stabilization”. The “Thermal stabilization of B-Raf” value at B-Raf [2] is “Activity was also observed”.
Consider `CC(C)(C)c1nc(-c2cccc(NS(=O)(=O)c3c(F)cccc3F)c2F)c(-c2ccnc(N)n2)s1` [Dabrafenib, dabrafenib], for which, on B-Raf [2], the “Thermal stabilization of B-Raf” value is on record as “active”. The “B-Raf ITDRFCETSA activity (in words)” value on B-Raf [1] is reported as “clear evidence of target engagement”.
For the compound `O=C(NOCCO)c1ccc2cncn2c1Nc1ccc(I)cc1F` [GDC-0623], at B-Raf [1] (setting [3]), the “B-Raf ITDRFCETSA activity (in words)” value was “inactive”. On B-Raf [1], this compound came in with an EC50 of more than 31.6 µM.
With `OCCn1cc(-c2ccc3c(c2)CC/C3=N\O)c(-c2ccncc2)n1` [GDC-0879], the “Thermal stabilization of B-Raf” value at B-Raf [2] is listed as “hits”.
Turning to `CNc1ncc2cc(-c3cc(NC(=O)NCCC(C)(C)C)c(F)cc3C)c(C)nc2n1` [LY3009120], on B-Raf [1], the “B-Raf ITDRFCETSA activity (in words)” value is reported as “clear evidence of target engagement”.
Same read-out and setting: to `CCCS(=O)(=O)Nc1ccc(F)c(C(=O)c2c[nH]c3ncc(Cl)cc23)c1F` [PLX4720] belongs “clear evidence of target engagement”.
On to `O=C(Nc1ccc2[nH]nc(-c3ccncc3)c2c1)[C@@H]1CCN(CC(=O)N2CCN(c3ccc(-c4ncccn4)cc3)CC2)C1` [SCH772984], for which the “B-Raf ITDRFCETSA activity (in words)” value on B-Raf [1] (setting [3]) was “inactive”. The compound further gave an EC50 on B-Raf [1] of more than 31.6 µM.
Turning to `CCCS(=O)(=O)Nc1ccc(F)c(C(=O)c2c[nH]c3ncc(-c4ccc(Cl)cc4)cc23)c1F` [Vemurafenib, vemurafenib], the “Thermal stabilization of B-Raf” value at B-Raf [2] is listed as “active”. Further, the “B-Raf ITDRFCETSA activity (in words)” value on B-Raf [1] was “clear evidence of target engagement”.
Turning to `Cc1ccc(C(=O)Nc2ccc(CN3CCN(C)CC3)c(C(F)(F)F)c2)cc1C#Cc1cnc2cccnn12` [ponatinib], the “Thermal stabilization of B-Raf” value at B-Raf [2] is “showed activity”.
